Data on 27 compounds can be found in ChEMBL document CHEMBL4483862, “Open-source discovery of chemical leads for next-generation chemoprotective antimalarials” (2018).

Bounds are passed on as bounds.

Usually IC50 stands for the midpoint of a concentration-inhibition curve. In general, IC90 refers to the concentration needed for an effect of 90%.

For this experiment, the system named is Plasmodium berghei. The experiment is described as follows: Luciferase/luciferin-expressing antifolate-resistant parasites were used to infect a culture of HepG2 cells that were pre-incubated with compounds. Infected hepatocytes emit light due to the luciferase reaction. Assay results are presented as the percent inhibition of light emission compared to control. […]. The experiment is classed as functional. The conditions noted are these: sporozoite; for IC90: read-out: LUCIFERASE INFECTION ASSAY - IC90.

Setting [1] is: read-out: LUCIFERASE INFECTION ASSAY - IC50.

As to `Cc1ccc(Nc2ccnc(Nc3ccc(C)cc3)n2)cc1`, the IC90 is greater than 10 µM. For the setting “PBLUC_HILL_SLOPE 2.32, 3.33, PBLUC_R_SQUARED 0.458, 0.517, read-out: LUCIFERASE INFECTION ASSAY - IC50”, the concentration for half-maximal inhibition (IC50) amounted to 4.86 µM.
Consider `COc1cc(OC)cc(C(=O)NC(=S)N(Cc2ccccc2)C(C)C)c1`, for which the concentration for an effect of 90% (IC90) is greater than 10 µM. Where the note is “PBLUC_HILL_SLOPE 14.1, PBLUC_R_SQUARED 0.0494, read-out: LUCIFERASE INFECTION ASSAY - IC50”, the IC50 came to 8.89 µM.
Take `CC(=O)c1csc(NC(=O)c2ccc(CSc3ccccc3)o2)n1`: the concentration for an effect of 90% (IC90) is greater than 10 µM. In addition, the half-inhibitory concentration (IC50) under setting [1] is greater than 10 µM.
Regarding `Cc1cc2oc(=O)cc(CN3CCC(c4c[nH]c5ccccc45)CC3)c2cc1C`, the IC90 is greater than 10 µM. In addition, the IC50 (FFLUC_HILL_SLOPE 22.3, FFLUC_R_SQUARED 0.464, read-out: LUCIFERASE INFECTION ASSAY - IC50) was greater than 10 µM.
Consider `CC(NC(=O)C12CC3CC(CC(C3)C1)C2)C(=O)N/N=C/C1=C(N2CCOCC2)C(=C\c2ccccc2)/CC1` (centres undefined), for which the IC90 is greater than 10 µM. Besides, the IC50 (FFLUC_HILL_SLOPE 17.7, FFLUC_R_SQUARED 0.505, PBLUC_HILL_SLOPE 17.3, PBLUC_R_SQUARED 0.294, read-out: LUCIFERASE INFECTION ASSAY - IC50) worked out at 9.09 µM.
With `CNC(=O)N(C1=NCC(C)(C)S1)c1cccc(C(F)(F)F)c1`, the IC90 is greater than 9.96 µM. In addition, the IC50 (HEPG2TOX_HILL_SLOPE 2.33, HEPG2TOX_R_SQUARED 0.841, PBLUC_HILL_SLOPE 2.51, PBLUC_R_SQUARED 0.0629, read-out: LUCIFERASE INFECTION ASSAY - IC50) came out at 7.95 µM.
Regarding `CC(C)OCCCn1c(S/C=C/c2ccc([N+](=O)[O-])o2)nc2ccccc2c1=O`, the 90% effect concentration (IC90) was greater than 10 µM. Moreover, the IC50 (FFLUC_HILL_SLOPE 0.75, FFLUC_R_SQUARED 0.0694, read-out: LUCIFERASE INFECTION ASSAY - IC50) was greater than 10 µM.
Consider `COC(=O)c1cnc(Sc2ccc(C(F)(F)F)cn2)c([N+](=O)[O-])c1`, for which the IC90 is greater than 9.18 µM. Moreover, where the note is “HEPG2TOX_HILL_SLOPE 7.53, HEPG2TOX_R_SQUARED 0.667, PBLUC_HILL_SLOPE 5.12, PBLUC_R_SQUARED 0.221, read-out: LUCIFERASE INFECTION ASSAY - IC50”, the IC50 is greater than 9.18 µM.
As for `CC(C)c1ccc(NC(=O)Nc2csc(Cc3c(Cl)cccc3Cl)n2)cc1`, the IC90 was greater than 7.85 µM. Moreover, under setting [1], the IC50 was greater than 7.85 µM.
With `CCOC(=O)c1sc(S(C)(=O)=O)c2c1CC(C)(C)CC2=O`, the IC90 was greater than 9.99 µM. Besides, the IC50 (HEPG2TOX_HILL_SLOPE 8.99, HEPG2TOX_R_SQUARED 0.709, PBLUC_HILL_SLOPE 5.08, PBLUC_R_SQUARED 0.0136, read-out: LUCIFERASE INFECTION ASSAY - IC50) was greater than 9.99 µM.
On to `COc1ccc(C)cc1NC(=O)c1ccc(NC(=O)Nc2ccccc2)s1`, for which the 90% effect concentration (IC90) is greater than 10 µM. Further, for the setting “PBLUC_HILL_SLOPE 2.41, PBLUC_R_SQUARED 0.229, read-out: LUCIFERASE INFECTION ASSAY - IC50”, the IC50 was determined as 7.11 µM.
In the case of `O=C(NNC(=S)Nc1cccc(C(F)(F)F)c1)c1cccn1-c1ccc(F)cc1`, the IC90 is greater than 7.81 µM. Besides, the IC50 (HEPG2TOX_HILL_SLOPE 5.96, HEPG2TOX_R_SQUARED 0.739, PBLUC_HILL_SLOPE 1.03, PBLUC_R_SQUARED 0.767, read-out: LUCIFERASE INFECTION ASSAY - IC50) was greater than 7.81 µM.
Take `CCc1cc(OCCCCCCN2CCC(C)CC2)ccc1Cl`: the IC90 is 7.91 µM. Under “HEPG2TOX_HILL_SLOPE 8.01, HEPG2TOX_R_SQUARED 0.5, PBLUC_HILL_SLOPE 3.89, PBLUC_R_SQUARED 0.522, read-out: LUCIFERASE INFECTION ASSAY - IC50”, the IC50 was determined as 4.49 µM.
In the case of `COc1ccc(CN2C(=O)N(CC(C)C)C3(CCN(Cc4ccc5c(c4)CCO5)CC3)C2=O)cc1`, the IC90 was greater than 6.91 µM. The IC50 (HEPG2TOX_HILL_SLOPE 0.211, HEPG2TOX_R_SQUARED 0.0109, PBLUC_HILL_SLOPE 2.27, PBLUC_R_SQUARED 0.453, read-out: LUCIFERASE INFECTION ASSAY - IC50) was 3.57 µM.
`O=C(Nc1nc(-c2ccc3c(c2)CCCC3)cs1)c1cnccn1`: the IC90 was greater than 10 µM. The IC50 under setting [1] was greater than 10 µM.
As to `Oc1cc2c(cc1CN1CCN(Cc3ccc4c(c3)OCO4)CC1)CCC2`, the IC90 is greater than 10 µM. In addition, the IC50 under setting [1] was greater than 10 µM.
As for `CN1\C(=C/C=N/N=C/C2=C(N3CCOCC3)C(=C\c3ccc([N+](=O)[O-])cc3)/CC2)C(C)(C)c2ccccc21`, the IC90 was 9.46 µM. For the same compound, the concentration for half-maximal inhibition (IC50) (PBLUC_HILL_SLOPE 22.4, PBLUC_R_SQUARED 0.296, read-out: LUCIFERASE INFECTION ASSAY - IC50) turned out to be 8.58 µM.
On to `NS(=O)(=O)c1ccc(CCNC(=O)COc2ccccc2Cc2ccccc2)cc1`, for which the IC90 came to 9.31 µM. For the same compound, under “PBLUC_HILL_SLOPE 4.18, PBLUC_R_SQUARED 0.0848, read-out: LUCIFERASE INFECTION ASSAY - IC50”, the IC50 was determined as 5.51 µM.
Regarding `Nc1c(-c2ccccc2)[nH]c2ccccc12`, the IC90 was greater than 15.8 µM. Besides, the IC50 under setting [1] was greater than 15.8 µM.
For `NC(=O)c1ccc(-c2cc(-c3ccccc3)cnc2N)cc1`, the IC90 was found to be 4.22 µM. In addition, for the setting “HEPG2TOX_HILL_SLOPE 7.43, HEPG2TOX_R_SQUARED 0.0328, PBLUC_HILL_SLOPE 16.6, PBLUC_R_SQUARED 0.439, read-out: LUCIFERASE INFECTION ASSAY - IC50”, the half-maximal inhibitory concentration (IC50) was determined as 3.7 µM.
Consider `CCC(C)c1ccc(-n2c(SCC(=O)N3c4ccccc4CC3C)nc3ccccc3c2=O)cc1` (centres undefined), for which the IC90 came out at 9.46 µM. In addition, for the setting “FFLUC_HILL_SLOPE 26.9, FFLUC_R_SQUARED 0.3, PBLUC_HILL_SLOPE 22.4, PBLUC_R_SQUARED 0.296, read-out: LUCIFERASE INFECTION ASSAY - IC50”, the IC50 worked out at 8.58 µM.
With `Cc1cc(C(=O)Cn2c(C(C)O)nc3ccccc32)c(C)n1-c1ccc(F)c(Cl)c1` (centres undefined), the IC90 is greater than 10 µM. Further, the IC50 (PBLUC_HILL_SLOPE 2.79, PBLUC_R_SQUARED 0.449, read-out: LUCIFERASE INFECTION ASSAY - IC50) turned out to be 7.26 µM.
In the case of `N#Cc1cc(NC(=O)c2ccc(F)cc2)ccc1Sc1cccc(C(F)(F)F)c1`, the IC90 is greater than 7.93 µM. Also, under setting [1], the half-inhibitory concentration (IC50) was found to be 3.07 µM.
Consider `CCN1C(=O)N(Cc2cccc(OC)c2)C(=O)C12CCN(Cc1cnc(-c3ccccc3)s1)CC2`, for which the IC90 is greater than 6.73 µM. The IC50 (HEPG2TOX_HILL_SLOPE 2.07, HEPG2TOX_R_SQUARED 0.932, PBLUC_HILL_SLOPE 9.26, PBLUC_R_SQUARED 0.304, read-out: LUCIFERASE INFECTION ASSAY - IC50) was 5.74 µM.
In the case of `CC1CC(C)CN(C(=O)CN2CCN(CC(=O)Nc3ccc(N4CCCCCC4)cc3)CC2)C1` (centres undefined), the IC90 is greater than 10 µM. In addition, the IC50 (PBLUC_HILL_SLOPE 1.09, PBLUC_R_SQUARED 0.619, read-out: LUCIFERASE INFECTION ASSAY - IC50) was 3.56 µM.
As to `c1ccc(-c2cc3c(N4CCC(c5ncc[nH]5)CC4)ncnc3s2)cc1`, the IC90 was found to be 3.94 µM. For the same compound, the IC50 (PBLUC_HILL_SLOPE 15.6, PBLUC_R_SQUARED 0.358, read-out: LUCIFERASE INFECTION ASSAY - IC50) came out at 3.43 µM.
Turning to `c1ccc(-c2nn(-c3ccccc3)cc2CSc2nncs2)cc1`, the IC90 is greater than 10 µM. Moreover, the half-maximal inhibitory concentration (IC50) (PBLUC_HILL_SLOPE 1.24, PBLUC_R_SQUARED 0.639, read-out: LUCIFERASE INFECTION ASSAY - IC50) was 5.72 µM.
